# Test results reported in patent US20160237491A1, “METHODS FOR TREATING HCV” (AbbVie Inc., priority 2013, published 2016).
# Test system: HCV
# Experiment: Viral load in treatment-naïve patients on Compound 1 and ritonavir for 3 days, then added peginterferon and ribavirin, grouped by IL28B PM02 methylation
# Assay type: in vivo, human
# Settings: FIG. 3
# Procedure: Twenty-one (21) treatment-naïve patients were included in the study. The patients received Compound 1 and ritonavir for three days followed by the addition of peginterferon and ribavirin for a total of 12 weeks of combination treatment. DNA samples obtained prior to the initiation of treatment were analyzed for methylation in a CpG island in the IL28B promoter corresponding to SEQ ID NO:2 (PM02). Subjects were grouped based on methylation level of PM02. Eleven (11) subjects had methylation values below 45% (diamonds). Ten (10) subjects had methylation values above 45% (squares). Viral load was assessed on Day 1 (“D1”), Day 2 (“D2”), Day 3 (“D3”), Day 4 (“D4”), Day 5 (“D5”), and Day 10 (“D10”) of treatment.
smiles,measurement,setting,value
"Cc1cnc(C(=O)N[C@H]2CCCCC/C=C\[C@@H]3C[C@@]3(C(=O)NS(=O)(=O)C3CC3)NC(=O)[C@@H]3C[C@@H](Oc4nc5ccccc5c5ccccc45)CN3C2=O)cn1 [Compound 1, (2R,6S,13aS,14aR,16aS,Z)—N-(cyclopropylsulfonyl)-6-(5-methylpyrazine-2-carboxamido)-5,16-dioxo-2-(phenanthridin-6-yloxy)-1,2,3,5,6,7,8,9,10,11,13a,14,14a,15,16,16a-hexadecahydrocyclopropa[e]pyrrolo[1,2-a][1,4]diazacyclopentadecine-14a-carboxamide]",reduction in viral load,"after 10 days of treatment, Compound 1 + ritonavir 3 days, then peginterferon and ribavirin added, both groups (PM02 methylation below 45% n=11, above 45% n=10)",dramatic reduction in viral load
same,effect of PM02 methylation status on response,"treatment-naïve patients, 10 days of treatment",does not affect response
